# In PMC7687371, “Quantitative in Vitro to in Vivo Extrapolation (QIVIVE) for Predicting Reduced Anogenital Distance Produced by Anti-Androgenic Pesticides in a Rodent Model for Male Reproductive Disorders” (Environmental Health Perspectives, 2020):
# Assays:
# [1] = Fetal chemical exposure analysis (LC-QTOF) at GD21; assay type: in vivo, rat; conditions: fetal plasma GD21
# Description: Dams were decapitated under CO2 /oxygen anesthesia at GD21 and fetuses collected by cesarean section. Prior to decapitation of the fetuses, their BWs and AGDs were recorded. Blood from the dams was collected in heparinized vacutainer tubes, centrifuged at 125×g for 10 min at 4°C to prepare plasma, and, together with the amniotic fluid, frozen directly. Pooled trunk blood from all female and male fetuses of the same litter (female and male blood separately) was collected into heparin-treated capillary tubes approximately 90 min after dosing and the plasma was prepared and stored at −80°C until analysis for pesticides and selected metabolites by liquid chromatography quadrupole time-of-flight mass spectroscopy (LC-QTOF). Details about the LC-QTOF analyses are provided in “Method S1” in Supplemental Material. Amniotic fluid was collected from fetuses by pipetting, pooled within each litter, snap frozen in liquid nitrogen, and subsequently stored at −80 °C .
# Method S1. Chemical analysis of pesticide levels
# Acetonitrile, methanol, formic acid and 25% ammonium hydroxide, all of LC-MS grade and ethyl acetate were obtained from Sigma Aldrich, Schneldorf, Germany. Isolute bulk C-18 sorbent was obtained from Biotage, Sweden and was washed with acetonitrile and ethyl acetate and dried prior to use. Water was purified on a Milli Q system, Millipore Corporation, US.
# Pesticide standards were purchased from Dr. Ehrenstorfer (Augsburg, Germany), LGC-standards (Teddington, Middlesex, UK) and Sigma Aldrich (St. Louis, MO, USA). Acetonitrile used as solvents for the LC-QTOF was LiChrosolv Hypergrade. An ESI-L low concentration tuning mix from Agilent (Santa Clara, CA, USA) was used for tuning of the TOF. A reference solution was prepared containing Purine and HP0921 from Agilent (Santa Clara, CA, USA).
# Stock solutions of the pesticides were prepared at 1 mg/ml in acetonitrile, methanol or toluene.
# Standard mixtures containing the test compounds were prepared at a concentration of 10 µg/ml acetonitrile and used for preparation of calibration solutions. Isomers eluting very close to each other were avoided in these mixtures. […]
# added 200 µl of ice-cold acetonitrile in Eppendorf tubes. Internal standard was added in the form of 10 µl TPP (5 µg/ml) and the extraction was performed by whirl mixing. The tube was then stored on ice for 5 min and then centrifuged at 10,000 x g for 10 min at 4 °C (Ole Dich Instrument, Denmark). An aliquot of the supernatant was transferred to filter vials (0.45 µm) and analysed by […]
# Quality control samples were included in each analytical run. These were prepared using the same procedure as for the samples, though using amniotic fluid from untreated control Wistar rats extracted with acetonitrile containing three different levels of the relevant pesticide standards. The resulting spike levels were 0.04, 0.013 and 0.13 µg/ml. […]
# fluid or plasma from Sprague Dawley rats was transferred to an Eppendorf vial and added 150 µl of acetonitrile. 50 mg of isolute C-18 sorbent was added to the tube, which was shaken for 5 min, […]
# cooled to 4 °C and centrifuged at 10,000 x g for 10 min at 4 °C (Ole Dich Instrument makers, Denmark). 20 µl of the supernatant was transferred to an HPLC vial and mixed with 80 µl of 5%- 75% acetonitrile (this percentage was analyte dependent) prior to analysis by LC-MS.LC -QTOF […]
# Pesticide screening was carried out using a liquid chromatography-electrospray ionization-quadrupole-time of flight-mass spectrometer.
# The LC system was connected to a Bruker Daltonics, maXis qTOF mass spectrometer equipped with an electrospray ion source operated in positive ion mode (Bruker Daltonics, Bremen, Germany). The ion source settings were: nebulizer pressure 2 bars, drying gas flow 8 l/min, dry gas temperature 200 °C, capillary voltage 2500 V. The scan range was from 80 to 700 m/z with an acquisition rate of 2 Hz. Sodium formate dissolved in 50% 2-propanol was introduced in the ion […]
# [2] = design: method as in U.S. EPA 2012; conditions: EPI Suite, experimental preferred over modeled; ref U.S. EPA 2012; cited from earlier work
# [3] = PBK model first-order kinetic parameters fitted to in vivo ADME data; design: species or system rat
# androgen receptor (AR) = molecular target: T1, androgen receptor (AR) (Homo sapiens, UniProt P10275); test: AR-EcoScreen androgen receptor transcriptional activation assay (AR antagonism); assay type: cell-based
# T1 construct: host or cells: AR-EcoScreen cells
# T1 sequence (P10275 1-920): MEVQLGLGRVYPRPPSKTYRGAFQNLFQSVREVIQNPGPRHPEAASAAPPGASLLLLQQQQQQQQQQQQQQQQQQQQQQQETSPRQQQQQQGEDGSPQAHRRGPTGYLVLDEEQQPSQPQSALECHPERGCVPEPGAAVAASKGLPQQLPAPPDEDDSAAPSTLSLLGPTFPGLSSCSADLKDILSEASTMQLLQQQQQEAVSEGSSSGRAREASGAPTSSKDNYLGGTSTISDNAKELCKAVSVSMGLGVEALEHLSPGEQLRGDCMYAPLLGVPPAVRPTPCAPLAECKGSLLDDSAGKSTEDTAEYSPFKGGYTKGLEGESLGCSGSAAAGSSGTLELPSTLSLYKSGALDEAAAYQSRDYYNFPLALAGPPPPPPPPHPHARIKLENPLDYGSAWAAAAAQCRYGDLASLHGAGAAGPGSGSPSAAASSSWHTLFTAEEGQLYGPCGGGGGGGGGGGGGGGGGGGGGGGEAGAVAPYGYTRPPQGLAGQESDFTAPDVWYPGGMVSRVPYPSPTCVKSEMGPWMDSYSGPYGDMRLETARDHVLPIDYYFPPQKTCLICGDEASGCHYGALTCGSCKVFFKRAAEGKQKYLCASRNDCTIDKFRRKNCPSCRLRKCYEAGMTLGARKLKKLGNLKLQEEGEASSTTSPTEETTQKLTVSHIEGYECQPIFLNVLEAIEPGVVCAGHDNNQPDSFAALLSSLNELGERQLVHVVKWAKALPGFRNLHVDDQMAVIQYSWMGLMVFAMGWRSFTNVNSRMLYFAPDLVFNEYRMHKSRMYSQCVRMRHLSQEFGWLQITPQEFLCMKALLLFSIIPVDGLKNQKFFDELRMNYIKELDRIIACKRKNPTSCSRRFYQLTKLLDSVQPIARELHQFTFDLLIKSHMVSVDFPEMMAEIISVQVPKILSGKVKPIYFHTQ
# Description: Experiments were run with three technical replicates and repeated three times. The mean value of technical replicates represents one biological replicate. AR-EcoScreen™ cells (JCRB1328; Japanese Collection of Research Bioresources) were grown in CellBIND® surface cell culture flasks (Corning Inc.) in growth medium consisting of Gibco® Dulbecco’s Modified Eagle’s Medium/F-12 (DMEM/F-12) Nutrient Mixture with L-glutamine and 4-(2-hydroxyethyl)-1-piperazineethanesulfonic acid (HEPES) and without phenol red supplemented with 5% fetal bovine serum (FBS), 1% penicillin-streptomycin, 200μg/mL Zeocin™ selection reagent, and 100μg/mL Hygromycin B (all reagents from Invitrogen, Life Technologies). The cells were incubated at 37°C in a humidified atmosphere of 5% carbon dioxide ( CO2 ) and 95% air. On the day before the experiment, cells were plated in white 96-well plates (Corning Inc.) at a density of 9,000 cells/well in assay medium consisting of Gibco® DMEM/F-12 Nutrient Mixture medium, 1% penicillin-streptomycin, with 5% dextran-coated charcoal-treated FBS (all reagents from Invitrogen, Life Technologies). On the following day, the medium was changed to assay medium containing the known AR agonist R1881 (Perkin Elmer) in 2-fold serial dilutions from 0.008 to 1 nM or the known AR antagonist hydroxyflutamide (CASRN 52806-53-8, Toronto Research Chemicals) in 3-fold serial dilutions from […] together with 0.1 nM R1881. […] The DMSO vehicle concentrations were kept constant in all wells (0.1%). Following approximately 20 h of exposure to test compounds firefly luminescence was measured in a luminometer (LUMIstar® Galaxy, BMG LABTECH) using Dual-Glo® Luciferase Reagent from the Dual-Glo® Luciferase Assay System from Promega. Cell viability was measured by Renilla luminescence using Dual-Glo® Stop & Glo® Reagent from the Dual-Glo® Luciferase Assay System.
smiles,measurement,setting,value
"CONC(=O)Nc1ccc(Cl)c(Cl)c1 [DPMU, 1-(3,4-Dichlorophenyl)-3-methoxyurea]",Measured concentration in male fetuses,[1]; dams dosed linuron 25 mg/kg BW per day,5.0 µM
same,Measured concentration in male fetuses,[1]; dams dosed linuron 50 mg/kg BW per day,9.6 µM
same,Measured concentration in male fetuses,[1]; dams dosed linuron 75 mg/kg BW per day,21.4 µM
same,log Kow,[2],2.70
same,Urine excretion rate from kidney (L/h) KUrine,[3]; PBK model parameter,0.05 L/h
same,"Metabolism rate in liver, Metabolite",[3]; conversion of parent compound into active metabolite,0.22 L/h
same,"Metabolism rate in liver, Total (L/h) KMetab","[3]; metabolic clearance, PBK model parameter",0.02 L/h
same,IC50,androgen receptor (AR),4 µM
